Test results: BindingDB's records for PubMed 20126400 (University of Oklahoma, 2010)
pKi: −log10 of the molar value.

Assays:
Assay in all cases: Ray2010 Assay 74
[1] = target: 5-hydroxytryptamine receptor 2A (Homo sapiens, UniProt P28223)
Text: (§1) Table S2 shows raw Ki data for the current study combined with data collected from the literature for the ten additional compounds.

Histamine H2 receptor = Histamine H2 receptor (Homo sapiens, UniProt P25021)
Text: as §1

D(4) dopamine receptor = target: T1, D(4) dopamine receptor (Homo sapiens, UniProt P21917)
T1 sequence (P21917 whole entry): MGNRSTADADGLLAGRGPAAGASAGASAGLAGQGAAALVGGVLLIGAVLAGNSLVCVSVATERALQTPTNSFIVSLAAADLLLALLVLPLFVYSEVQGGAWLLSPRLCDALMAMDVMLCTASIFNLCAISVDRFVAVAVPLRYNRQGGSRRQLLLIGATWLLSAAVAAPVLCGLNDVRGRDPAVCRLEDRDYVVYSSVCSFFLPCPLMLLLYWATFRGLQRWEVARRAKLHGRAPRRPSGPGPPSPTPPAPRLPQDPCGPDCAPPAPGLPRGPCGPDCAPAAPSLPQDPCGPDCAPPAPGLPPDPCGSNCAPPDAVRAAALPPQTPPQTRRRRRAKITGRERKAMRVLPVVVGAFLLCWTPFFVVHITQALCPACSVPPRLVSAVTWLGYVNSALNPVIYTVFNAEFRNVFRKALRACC
Text: as §1

[2] = target: T2, Alpha-1A adrenergic receptor (Homo sapiens, UniProt P35348)
T2 sequence (P35348 whole entry): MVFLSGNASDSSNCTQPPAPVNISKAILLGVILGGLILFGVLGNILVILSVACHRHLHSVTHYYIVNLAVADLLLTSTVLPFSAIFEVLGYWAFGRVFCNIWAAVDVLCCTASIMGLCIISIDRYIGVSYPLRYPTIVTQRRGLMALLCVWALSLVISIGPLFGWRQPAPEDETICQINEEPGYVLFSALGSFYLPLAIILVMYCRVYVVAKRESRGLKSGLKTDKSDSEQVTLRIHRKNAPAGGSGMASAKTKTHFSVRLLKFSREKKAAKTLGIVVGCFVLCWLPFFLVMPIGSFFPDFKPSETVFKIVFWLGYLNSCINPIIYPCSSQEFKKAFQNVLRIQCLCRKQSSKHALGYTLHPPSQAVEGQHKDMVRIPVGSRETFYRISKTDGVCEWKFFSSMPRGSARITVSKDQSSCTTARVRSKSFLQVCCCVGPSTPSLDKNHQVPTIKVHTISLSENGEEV
Text: as §1

[3] = target: T3, Muscarinic acetylcholine receptor M1 (Homo sapiens, UniProt P11229)
T3 sequence (P11229 whole entry): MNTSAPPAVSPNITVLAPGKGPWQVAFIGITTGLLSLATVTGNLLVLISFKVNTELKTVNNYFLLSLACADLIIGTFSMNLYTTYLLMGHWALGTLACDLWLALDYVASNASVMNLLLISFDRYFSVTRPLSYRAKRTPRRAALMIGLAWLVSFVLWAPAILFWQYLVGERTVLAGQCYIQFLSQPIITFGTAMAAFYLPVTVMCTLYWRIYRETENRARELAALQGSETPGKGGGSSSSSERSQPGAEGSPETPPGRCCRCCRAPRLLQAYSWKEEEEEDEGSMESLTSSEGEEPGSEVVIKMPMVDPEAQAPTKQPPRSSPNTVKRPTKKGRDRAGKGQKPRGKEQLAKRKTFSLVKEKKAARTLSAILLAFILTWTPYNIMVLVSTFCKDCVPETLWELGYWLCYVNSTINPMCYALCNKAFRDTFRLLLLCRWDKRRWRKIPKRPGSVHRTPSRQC
Text: as §1

[4] = target: Sodium-dependent serotonin transporter (Homo sapiens, UniProt P31645)
Text: as §1

[5] = target: T4, Gamma-aminobutyric acid receptor subunit alpha-1 (Homo sapiens, UniProt P14867)
T4 sequence (P14867 whole entry): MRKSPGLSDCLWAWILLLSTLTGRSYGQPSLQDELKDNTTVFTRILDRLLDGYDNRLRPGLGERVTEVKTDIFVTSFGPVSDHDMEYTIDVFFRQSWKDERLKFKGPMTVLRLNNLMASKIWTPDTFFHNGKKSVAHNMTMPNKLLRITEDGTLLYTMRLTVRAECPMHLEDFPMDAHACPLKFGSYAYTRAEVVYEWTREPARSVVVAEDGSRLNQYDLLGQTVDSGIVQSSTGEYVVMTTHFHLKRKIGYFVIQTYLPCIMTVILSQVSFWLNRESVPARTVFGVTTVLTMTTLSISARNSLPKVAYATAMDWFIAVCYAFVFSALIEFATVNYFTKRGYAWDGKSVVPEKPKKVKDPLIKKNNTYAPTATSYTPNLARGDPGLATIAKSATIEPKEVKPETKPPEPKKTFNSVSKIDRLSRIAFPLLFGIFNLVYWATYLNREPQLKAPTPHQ
Text: as §1

[6] = target: Sodium-dependent noradrenaline transporter (Homo sapiens, UniProt P23975)
Text: as §1

[7] = target: T5, Alpha-2A adrenergic receptor (Homo sapiens, UniProt P08913)
T5 sequence (P08913 whole entry): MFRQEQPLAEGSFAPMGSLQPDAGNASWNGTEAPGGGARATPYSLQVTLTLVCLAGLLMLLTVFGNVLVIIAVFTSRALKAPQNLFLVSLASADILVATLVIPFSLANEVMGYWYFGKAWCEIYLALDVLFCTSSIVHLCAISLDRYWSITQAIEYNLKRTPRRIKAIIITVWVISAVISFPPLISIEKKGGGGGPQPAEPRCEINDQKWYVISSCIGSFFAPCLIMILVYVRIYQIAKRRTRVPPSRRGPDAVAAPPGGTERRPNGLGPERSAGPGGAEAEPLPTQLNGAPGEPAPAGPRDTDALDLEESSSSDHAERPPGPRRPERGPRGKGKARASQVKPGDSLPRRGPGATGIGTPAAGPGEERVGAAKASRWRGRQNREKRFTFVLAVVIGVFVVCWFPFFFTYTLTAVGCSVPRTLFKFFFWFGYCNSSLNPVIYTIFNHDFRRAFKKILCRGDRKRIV
Text: as §1

[8] = target: 5-hydroxytryptamine receptor 5A (Homo sapiens, UniProt P47898)
Text: as §1

Chain of 5-hydroxytryptamine receptor 2A (P28223 whole entry): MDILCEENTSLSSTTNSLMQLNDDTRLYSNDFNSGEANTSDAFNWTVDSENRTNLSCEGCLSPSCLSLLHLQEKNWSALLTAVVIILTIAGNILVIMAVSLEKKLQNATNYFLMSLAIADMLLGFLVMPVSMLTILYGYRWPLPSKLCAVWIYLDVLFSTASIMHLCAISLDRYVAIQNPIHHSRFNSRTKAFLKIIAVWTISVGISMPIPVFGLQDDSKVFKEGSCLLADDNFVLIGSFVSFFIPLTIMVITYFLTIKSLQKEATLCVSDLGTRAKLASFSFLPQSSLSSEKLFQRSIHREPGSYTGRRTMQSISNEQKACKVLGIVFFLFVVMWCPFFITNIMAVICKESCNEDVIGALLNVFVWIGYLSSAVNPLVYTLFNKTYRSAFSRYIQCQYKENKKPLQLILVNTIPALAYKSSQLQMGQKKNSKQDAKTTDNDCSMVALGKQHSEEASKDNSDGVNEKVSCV
Chain of Sodium-dependent noradrenaline transporter (P23975 whole entry): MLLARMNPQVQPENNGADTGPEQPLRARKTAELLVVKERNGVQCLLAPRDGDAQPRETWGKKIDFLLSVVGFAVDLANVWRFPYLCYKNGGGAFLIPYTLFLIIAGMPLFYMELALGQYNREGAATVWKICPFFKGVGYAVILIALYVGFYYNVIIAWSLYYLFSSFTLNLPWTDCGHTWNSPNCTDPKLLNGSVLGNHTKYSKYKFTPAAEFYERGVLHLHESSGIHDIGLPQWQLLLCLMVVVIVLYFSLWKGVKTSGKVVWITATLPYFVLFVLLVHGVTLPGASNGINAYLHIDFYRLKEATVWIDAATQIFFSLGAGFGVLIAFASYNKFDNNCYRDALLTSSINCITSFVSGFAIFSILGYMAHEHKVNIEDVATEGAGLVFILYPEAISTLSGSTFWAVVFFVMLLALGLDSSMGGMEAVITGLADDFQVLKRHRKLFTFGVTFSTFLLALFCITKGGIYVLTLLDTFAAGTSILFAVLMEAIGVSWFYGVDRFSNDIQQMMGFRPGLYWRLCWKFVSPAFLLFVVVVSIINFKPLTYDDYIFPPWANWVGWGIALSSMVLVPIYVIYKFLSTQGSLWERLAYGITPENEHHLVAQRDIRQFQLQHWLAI
Chain of Histamine H2 receptor (P25021 whole entry): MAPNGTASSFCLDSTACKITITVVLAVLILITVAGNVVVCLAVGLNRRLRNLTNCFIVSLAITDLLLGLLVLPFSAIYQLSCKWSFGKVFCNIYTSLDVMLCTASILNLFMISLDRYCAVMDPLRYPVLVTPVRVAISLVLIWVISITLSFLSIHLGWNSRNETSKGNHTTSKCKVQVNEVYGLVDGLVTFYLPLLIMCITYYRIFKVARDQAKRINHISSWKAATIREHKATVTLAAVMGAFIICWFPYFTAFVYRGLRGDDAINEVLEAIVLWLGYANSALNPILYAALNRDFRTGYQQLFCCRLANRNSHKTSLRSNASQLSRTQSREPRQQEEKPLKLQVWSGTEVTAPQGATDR
Chain of 5-hydroxytryptamine receptor 5A (P47898 whole entry): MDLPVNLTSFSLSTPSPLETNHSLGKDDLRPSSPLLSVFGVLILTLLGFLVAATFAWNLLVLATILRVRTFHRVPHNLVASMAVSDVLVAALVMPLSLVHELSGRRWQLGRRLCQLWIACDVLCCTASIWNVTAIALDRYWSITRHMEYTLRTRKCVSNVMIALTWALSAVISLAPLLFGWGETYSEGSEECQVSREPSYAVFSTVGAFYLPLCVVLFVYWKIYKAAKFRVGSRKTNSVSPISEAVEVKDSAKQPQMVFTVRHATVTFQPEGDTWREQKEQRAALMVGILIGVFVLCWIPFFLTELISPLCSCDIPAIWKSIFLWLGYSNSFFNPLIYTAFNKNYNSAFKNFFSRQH
Chain of Sodium-dependent serotonin transporter (P31645 whole entry): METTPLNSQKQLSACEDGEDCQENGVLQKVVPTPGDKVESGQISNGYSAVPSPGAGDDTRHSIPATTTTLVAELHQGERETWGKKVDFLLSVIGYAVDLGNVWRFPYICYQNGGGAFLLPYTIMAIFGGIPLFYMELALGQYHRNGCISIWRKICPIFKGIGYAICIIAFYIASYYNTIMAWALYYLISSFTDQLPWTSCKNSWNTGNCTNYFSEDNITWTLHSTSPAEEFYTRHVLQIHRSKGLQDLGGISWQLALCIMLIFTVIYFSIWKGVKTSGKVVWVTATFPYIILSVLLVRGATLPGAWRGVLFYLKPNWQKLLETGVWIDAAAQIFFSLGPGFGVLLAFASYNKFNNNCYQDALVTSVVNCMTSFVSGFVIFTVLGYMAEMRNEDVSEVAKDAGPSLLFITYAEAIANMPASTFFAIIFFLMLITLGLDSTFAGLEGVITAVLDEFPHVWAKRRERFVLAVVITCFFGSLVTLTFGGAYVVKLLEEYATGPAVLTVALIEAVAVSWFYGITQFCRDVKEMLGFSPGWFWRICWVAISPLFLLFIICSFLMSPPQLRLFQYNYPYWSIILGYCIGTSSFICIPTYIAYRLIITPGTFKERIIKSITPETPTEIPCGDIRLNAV

Compound	pKi [1]	pKi (Histamine H2 receptor)	pKi (D(4) dopamine receptor)	pKi [2]	pKi [3]	pKi [4]	pKi [5]	pKi [6]	pKi [7]	pKi [8]
CCc1cc(OC)c(CCN)cc1OC [2-(2,5-dimethoxy-4-ethylphenyl)ethylamine]	7.36	< 5.00	< 5.00	< 5.00	< 5.00	< 5.00	< 5.00	< 5.00	6.31	< 5.00
CCSc1cc(OC)c(CC(C)N)cc1OC (stereo not given) [2-(4-Ethylsulfanyl-2,5-dimethoxy-phenyl)-1-methyl-ethylamine]	7.22	< 5.00	< 5.00	< 5.00	< 5.00	5.88	< 5.00	< 5.00	5.24	< 5.00
CCSc1cc(OC)c(CCN)cc1OC [2C-T-2]	7.40	< 5.00	< 5.00	< 5.00	< 5.00	< 5.00	< 5.00	< 5.00	6.14	< 5.00
COc1cc(CCN)cc(OC)c1OC [3,4,5-trimethoxyphenylethylamine]	< 5.00	< 5.00	< 5.00	< 5.00	< 5.00	< 5.00	< 5.00	< 5.00	5.05	< 5.00
COc1ccc2[nH]cc(CCN(C)C(C)C)c2c1 [5-meo-mipt]	6.35	< 5.00	5.20	< 5.00	< 5.00	5.19	< 5.00	< 5.00	6.76	6.02
COc1cc(CC(C)N)c(OC)cc1C (stereo not drawn) [(+/-)2-(2,5-Dimethoxy-4-methyl-phenyl)-1-methyl-ethylamine]	6.29	< 5.00	< 5.00	5.49	< 5.00	< 5.00	< 5.00	< 5.00	6.24	< 5.00
CC(C)N(CCc1c[nH]c2ccccc12)C(C)C [dipt]	< 5.00	< 5.00	< 5.00	< 5.00	< 5.00	5.90	< 5.00	< 5.00	< 5.00	< 5.00
CCCN(CCC)CCc1c[nH]c2ccccc12 [dpt]	5.59	< 5.00	5.70	6.06	< 5.00	6.80	< 5.00	< 5.00	6.34	5.36
CNC(C)Cc1ccc2c(c1)OCO2 (stereo not given) [mdma]	< 5.00	< 5.00	< 5.00	< 5.00	< 5.00	< 5.00	< 5.00	< 5.00	5.60	< 5.00
CAS_82830-44-2::(2R)-1-(4-iodo-2,5-dimethoxyphenyl)propan-2-amine::DOI,(-)::US20250270173, Compound DOI	6.78	< 5.00	< 5.00	< 5.00	5.57	6.16	< 5.00	< 5.00	7.13	< 5.00
